Assay results reported in ChEMBL document CHEMBL3046208, “Natural and synthetic podolactones with potential use as natural herbicide models” (2000).
Calls of active or inactive are those of the source.

Tests used:
Type in all cases: functional
Allium cepa [1] = assay: Inhibition of root length of Allium cepa (onion) at 0.1 mM after 5 days relative to untreated control
Lactuca sativa [2] = assay: Inhibition of root length of Lactuca sativa cv. Roman (lettuce) at 0.1 mM after 5 days relative to untreated control
Lactuca sativa [3] = assay: Inhibition of germination of Lactuca sativa cv. Nigra (lettuce) at 0.1 mM after 5 days relative to untreated control; conditions: 120 h
Lepidium sativum [4] = assay: Inhibition of germination of Lepidium sativum at 0.1 mM after 5 days relative to untreated control
Allium cepa [5] = assay: Stimulation of root length of Allium cepa (onion) at 0.1 mM after 5 days relative to untreated control
Lepidium sativum [6] = assay: Inhibition of root length of Lepidium sativum at 0.1 mM after 5 days relative to untreated control; conditions: 120 h
Allium cepa [7] = assay: Inhibition of germination of Allium cepa (onion) at 1 uM after 5 days relative to untreated control; conditions: 120 h
Hordeum vulgare [8] = assay: Stimulation of root length of Hordeum vulgare (barley) at 0.1 mM after 5 days relative to untreated control
Triticum aestivum [9] = assay: Stimulation of root length of Triticum aestivum (wheat) at 0.1 mM after 5 days relative to untreated control
Triticum aestivum [10] = assay: Inhibition of root length of Triticum aestivum (wheat) at 0.1 mM after 5 days relative to untreated control
Allium cepa [11] = assay: Stimulation of germination of Allium cepa (onion) at 0.1 mM after 5 days relative to untreated control
Triticum aestivum [12] = assay: Stimulation of shoot length of Triticum aestivum (wheat) at 0.1 mM after 5 days relative to untreated control
Solanum lycopersicum [13] = assay: Inhibition of shoot length of Solanum lycopersicum (tomato) at 0.1 mM after 5 days relative to untreated control; conditions: 120 h
Lactuca sativa [14] = assay: Inhibition of shoot length of Lactuca sativa cv. Nigra (lettuce) at 0.1 mM after 5 days relative to untreated control; conditions: 120 h
Hordeum vulgare [15] = assay: Inhibition of root length of Hordeum vulgare (barley) at 0.1 mM after 5 days relative to untreated control; conditions: 120 h
Allium cepa [16] = assay: Stimulation of shoot length of Allium cepa (onion) at 0.1 mM after 5 days relative to untreated control
Hordeum vulgare [17] = assay: Inhibition of germination of Hordeum vulgare (barley) at 0.1 mM after 5 days relative to untreated control; conditions: 120 h
Lepidium sativum [18] = assay: Stimulation of germination of Lepidium sativum at 0.1 mM after 5 days relative to untreated control
Solanum lycopersicum [19] = assay: Inhibition of root length of Solanum lycopersicum (tomato) at 0.1 mM after 5 days relative to untreated control; conditions: 120 h
Lactuca sativa [20] = assay: Stimulation of germination of Lactuca sativa cv. Roman (lettuce) at 0.1 mM after 5 days relative to untreated control
Lactuca sativa [21] = assay: Stimulation of shoot length of Lactuca sativa cv. Nigra (lettuce) at 0.1 mM after 5 days relative to untreated control
Triticum aestivum [22] = assay: Inhibition of germination of Triticum aestivum (wheat) at 0.1 mM after 5 days relative to untreated control
Solanum lycopersicum [23] = assay: Stimulation of root length of Solanum lycopersicum (tomato) at 0.1 mM after 5 days relative to untreated control
Triticum aestivum [24] = assay: Inhibition of shoot length of Triticum aestivum (wheat) at 0.1 mM after 5 days relative to untreated control
Lactuca sativa [25] = assay: Stimulation of root length of Lactuca sativa cv. Roman (lettuce) at 0.1 mM after 5 days relative to untreated control
Allium cepa [26] = assay: Inhibition of shoot length of Allium cepa (onion) at 0.1 mM after 5 days relative to untreated control; conditions: 120 h
Lactuca sativa [27] = assay: Inhibition of germination of Lactuca sativa cv. Roman (lettuce) at 0.1 mM after 5 days relative to untreated control
Lepidium sativum [28] = assay: Stimulation of shoot length of Lepidium sativum at 0.1 mM after 5 days relative to untreated control
Hordeum vulgare [29] = assay: Stimulation of shoot length of Hordeum vulgare (barley) at 0.1 mM after 5 days relative to untreated control
Lactuca sativa [30] = assay: Stimulation of root length of Lactuca sativa cv. Nigra (lettuce) at 0.1 mM after 5 days relative to untreated control
Lepidium sativum [31] = assay: Inhibition of shoot length of Lepidium sativum at 0.1 mM after 5 days relative to untreated control; conditions: 120 h
Hordeum vulgare [32] = assay: Stimulation of germination of Hordeum vulgare (barley) at 0.1 mM after 5 days relative to untreated control
Solanum lycopersicum [33] = assay: Stimulation of shoot length of Solanum lycopersicum (tomato) at 0.1 mM after 5 days relative to untreated control
Hordeum vulgare [34] = assay: Inhibition of shoot length of Hordeum vulgare (barley) at 0.1 mM after 5 days relative to untreated control
Lactuca sativa [35] = assay: Inhibition of shoot length of Lactuca sativa cv. Roman (lettuce) at 0.1 mM after 5 days relative to untreated control; conditions: 120 h
Lepidium sativum [36] = assay: Stimulation of root length of Lepidium sativum at 0.1 mM after 5 days relative to untreated control
Lactuca sativa [37] = assay: Stimulation of germination of Lactuca sativa cv. Nigra (lettuce) at 0.1 mM after 5 days relative to untreated control
Solanum lycopersicum [38] = assay: Stimulation of root length of Solanum lycopersicum (tomato) at 10 nM after 5 days relative to untreated control
Lactuca sativa [39] = assay: Stimulation of shoot length of Lactuca sativa cv. Roman (lettuce) at 0.1 mM after 5 days relative to untreated control
Lactuca sativa [40] = assay: Inhibition of root length of Lactuca sativa cv. Nigra (lettuce) at 0.1 mM after 5 days relative to untreated control; conditions: 120 h
Solanum lycopersicum [41] = assay: Inhibition of germination of Solanum lycopersicum (tomato) at 0.1 mM after 5 days relative to untreated control
Allium cepa [42] = assay: Inhibition of germination of Allium cepa (onion) at 0.1 mM after 5 days relative to untreated control
Triticum aestivum [43] = assay: Stimulation of germination of Triticum aestivum (wheat) at 0.1 mM after 5 days relative to untreated control
Solanum lycopersicum [44] = assay: Stimulation of germination of Solanum lycopersicum (tomato) at 0.1 mM after 5 days relative to untreated control
Hordeum vulgare [45] = assay: Inhibition of germination of Hordeum vulgare (barley) at 10 nM after 5 days relative to untreated control; conditions: 120 h

COC(=O)[C@@]1(C)CCC[C@@]2(C)[C@H]1CC[C@H]1COC(=O)C[C@@H]12
inactive: inhibition (Lepidium sativum [4]) | Activity (Triticum aestivum [12]) | Activity (Lepidium sativum [18]) | Activity (Lactuca sativa [20]) | inhibition (Triticum aestivum [22]) | inhibition (Triticum aestivum [24]) | inhibition (Lactuca sativa [27]) | Activity (Hordeum vulgare [29]) | inhibition (Hordeum vulgare [34]) | inhibition (Solanum lycopersicum [41]) | Activity (Triticum aestivum [43]) | Activity (Solanum lycopersicum [44])
>40%: Activity (Hordeum vulgare [8]) | Activity (Solanum lycopersicum [23]) | Activity (Hordeum vulgare [32])
<20%: Activity (Allium cepa [5]) | Activity (Triticum aestivum [9]) | Activity (Lactuca sativa [25]) | Activity (Lactuca sativa [30]) | Activity (Lepidium sativum [36])
20%: inhibition at 100 µM (Lactuca sativa [3]) | Activity (Allium cepa [11]) | inhibition at 100 µM (Solanum lycopersicum [13]) | inhibition at 100 µM (Lactuca sativa [14]) | Activity (Allium cepa [16]) | Activity (Lactuca sativa [21]) | inhibition at 100 µM (Allium cepa [26]) | Activity (Lepidium sativum [28]) | inhibition at 100 µM (Lepidium sativum [31]) | Activity (Solanum lycopersicum [33]) | inhibition at 100 µM (Lactuca sativa [35]) | Activity (Lactuca sativa [37]) | Activity (Lactuca sativa [39]) | inhibition at 100 µM (Allium cepa [42]; 120 h)
> 40%: inhibition at 100 µM (Hordeum vulgare [15]) | inhibition at 100 µM (Hordeum vulgare [17]) | inhibition at 100 µM (Solanum lycopersicum [19])
< 20%: inhibition at 100 µM (Allium cepa [1]; 120 h) | inhibition at 100 µM (Lactuca sativa [2]; 120 h) | inhibition at 100 µM (Lepidium sativum [6]) | inhibition at 100 µM (Triticum aestivum [10]; 120 h) | inhibition at 100 µM (Lactuca sativa [40])
-46%: inhibition at 1 µM (Allium cepa [7])
60%: Activity (Solanum lycopersicum [38])

C[C@]1(C(=O)O)CCC[C@]2(C)C3=CC(=O)OC[C@]34O[C@@H]4C[C@@H]12
> 40%: inhibition at 100 µM (Hordeum vulgare [17])
20%: Activity (Hordeum vulgare [8]) | inhibition at 100 µM (Hordeum vulgare [15]) | inhibition at 100 µM (Solanum lycopersicum [19]) | Activity (Solanum lycopersicum [23]) | Activity (Lepidium sativum [28]) | inhibition at 100 µM (Lepidium sativum [31])
< 20%: inhibition at 100 µM (Lactuca sativa [3]) | inhibition at 100 µM (Lepidium sativum [6]) | inhibition at 100 µM (Solanum lycopersicum [13]) | inhibition at 100 µM (Lactuca sativa [14]) | inhibition at 100 µM (Allium cepa [26]) | inhibition at 100 µM (Lactuca sativa [27]; 120 h) | inhibition at 100 µM (Lactuca sativa [35]) | inhibition at 100 µM (Lactuca sativa [40])
<20%: Activity (Allium cepa [16]) | Activity (Lactuca sativa [20]) | Activity (Lactuca sativa [21]) | Activity (Lactuca sativa [30]) | Activity (Solanum lycopersicum [33]) | Activity (Lepidium sativum [36]) | Activity (Lactuca sativa [37]) | Activity (Lactuca sativa [39])
-72%: inhibition at 0.01 µM (Hordeum vulgare [45])
>40%: Activity (Hordeum vulgare [32])
inactive: inhibition (Allium cepa [1]) | inhibition (Lactuca sativa [2]) | inhibition (Lepidium sativum [4]) | Activity (Allium cepa [5]) | Activity (Triticum aestivum [9]) | inhibition (Triticum aestivum [10]) | Activity (Allium cepa [11]) | Activity (Triticum aestivum [12]) | Activity (Lepidium sativum [18]) | inhibition (Triticum aestivum [22]) | inhibition (Triticum aestivum [24]) | Activity (Lactuca sativa [25]) | Activity (Hordeum vulgare [29]) | inhibition (Hordeum vulgare [34]) | inhibition (Solanum lycopersicum [41]) | inhibition (Allium cepa [42]) | Activity (Triticum aestivum [43]) | Activity (Solanum lycopersicum [44])
